Consider 6 compounds from patent US20070191485A1, “Active oxygen scavenging composition including citrulline” (Nara Institute of Science and Technology, priority 2001, published 2007).

The test system of experiment [1] is malate dehydrogenase (MDH). The experiment in a line: Effect of solutes on enzymatic activity of malate dehydrogenase (MDH). In kind it is biochemical, wild water-melon (Citrullus lanatus sp. No. 101117-1). How it is done: (§1) Safety of citrulline was compared with that of arginine, by investigation of inhibition on enzymatic activities of malate dehydrogenase (MDH) and lactate dehydrogenase (LDH), caused by high concentration citrulline and arginine. Chloride ion was used as ion pair for arginine, and assay on potassium chloride was performed to evaluate effect of the chloride ion as well.
(§2) Leaf tissue derived from wild water-melon (Citrullus lanatus sp. No. 101117-1) was fractured under cooling with liquid nitrogen. Then after extraction with extraction buffer (50 mM Tris-HCl, pH=7.5, 5 mM DTT, 5 μg/ml BSA, 15% glycerol), supernatant obtained by centrifugation at 10,000 g for 5 minutes was used as crude extraction fraction of malate dehydrogenase (MDH). Pig purified authentic enzyme available from Oriental Co., was used as lactate dehydrogenase (LDH). MDH reaction solution contained 100 mM Tris-HCl pH 7.5, 150 μM NADH, 250 μM oxaloacetic acid and 10 μL of enzyme solution, and the total volume of the solution was adjusted to 1 mL. As LDH reaction solution, a mixture containing 10 mM Tris-HCl pH 7.5, 150 μM NADH, 250 μM lithium pyruvate and 10 μL of enzyme solution was used. When effect of various kinds of solutes, e.g. citrulline, on enzymatic activity is to be investigated, pH of the solution was re-adjusted to 7.5 by using KOH after addition of the solute at various concentration. The reaction started at 25° C. by addition of substrate, then initial rate was determined by alteration of absorbance at 340 nm, accompanied by decrease of NADH. Incidentally, in FIG. 2 and FIG. 3, white columns indicate the results of citrulline, black columns indicate those of arginine chloride, and hatched columns indicate those of potassium chloride, respectively.

The test system of experiment [2] is lactate dehydrogenase (LDH). The experiment in a line: Effect of solutes on enzymatic activity of lactate dehydrogenase (LDH). The experiment is classed as biochemical, Pig. On the procedure: as §1, §2
The conditions of experiment [3]: reported value used as the standard for calculation, cited from earlier work.
For another experiment, the system named is pyruvate kinase (PK). The experiment in a line: Protection of pyruvate kinase (PK) activity from injury by hydroxyl radical. In kind it is biochemical, porcine. The note with it: after 120 minutes (about 36% without citrulline). How it is done:
The ability of citrulline to protect bio-molecules, such as enzymes or nucleic acids, from hydroxyl radical was investigated. That is, investigation on the effect of hydroxyl radical exerted to enzymatic activity of pyruvate kinase (PK) was performed. Here, hydroxyl radical was generated by a system using ascorbic acid and hydrogen peroxide. The inactivation mixture contained 100 mM of Tris-HCl buffer (pH 7.4), 2.5 U of porcine PK (available from Oriental CO.), 0.2 mM of ascorbate, 0.15 mM of FeEDTA, 0.6 mM of H2O2 and citrulline at various concentrations. Then the total volume was adjusted to 250 μL. The inactivation reaction started by adding H2O2 at 25° C. and 10 μL of aliquot was sampled at constant intervals. Then residual activity of the enzyme was determined. The reaction mixture for measurement of enzymatic activity contained 80 mM of Tris-HCl buffer (pH 7.4), 7.5 mM of MgCl2, 75 mM of KCl, 3.75 mM of ADP, 0.15 mM of NADH, 10 U of porcine LDH, 0.8 mM of PEP and 10 μL of inactivated PK enzyme. The reaction started by addition of substrate at 25° C., and initial rate was measured by alteration of absorbance at 340 nm, accompanied by increase or decrease of NADH. In FIG. 5, ∘ indicates absence of citrulline, ● indicates presence of 200 mM citrulline, ▴ indicates presence of 400 mM citrulline, and ▪ indicates without generation of active oxygen, respectively.

A further experiment deals with circular plasmid DNA. The experiment in a line: Protection of circular plasmid DNA from injury by hydroxyl radical (agarose gel electrophoresis). Conditions: after 2 hours. On the procedure: Moreover, the effect of citrulline to prevent DNA from active oxygen injury was investigated. A solution containing 200 ng of circular plasmid DNA and various concentrations of citrulline was prepared and hydroxyl radical was generated by addition of 3 mM of H2O2 and 0.01 mM of FeEDTA. Then injury exerted on DNA was evaluated by agarose gel electrophoresis after 2 hours. The results were shown in FIG. 6 and lanes 1 to 7 indicated following experimental systems, respectively. In FIG. 6, lane 1 indicates molecular marker for electrophoresis. Lane 2 indicates a result untreated plasmid DNA. Lane 3 indicates a result from an experimental system wherein trivalent iron is added solely. Lane 4 indicates a result from an experimental system wherein hydroxyl radical was generated by addition of trivalent iron and hydrogen peroxide. Lane 5 indicates a result from an experimental system wherein 50 mM of citrulline was added to the system of lane 4 (the system with generation of active oxygen) to eliminate the generated active oxygen. Lane 6 indicates a result from an experimental system wherein 100 mM of citrulline was added to the system of lane 4 (the system with generation of active oxygen) to eliminate the generated active oxygen. Lane 7 indicates a result from an experimental system wherein 200 mM of citrulline was added to the system of lane 4 (the system with generation of active oxygen) to eliminate the generated active oxygen.

Experiment [4] can be described thus: Kinetic analysis of reaction with hydroxyl radical (competition with hydroxylation of salicylic acid). Conditions: for Reaction rate constant (with hydroxyl radical): calculated from competitive reaction theory, mannitol as standard. How it is done: To evaluate ability of citrulline as an active oxygen scavenger, reaction rate between citrulline and hydroxyl radical was determined. Generation of hydroxyl radical was performed by a system using ascorbic acid and hydrogen peroxide. Here hydroxylation of salicylic acid was used as an index for radical generation. The reaction mixture contained 40 mM of K-Pi buffer, pH 7.4, 0.26 mM of ascorbate, 0.15 mM of FeEDTA, 0.6 mM of H2O2, 2 mM of salicylate and various compatible solutes, then the total volume was adjusted to 400 μL. After reaction at 25° C. for 90 minutes, reaction product of salicylic acid and a hydroxyl radical (namely, 2,3-dihydroxybenzoic acid) was altered to its chromogenic derivative. Then it was determined by absorbance at 510 nm. As the result, the secondary reaction rate constant on reaction of citrulline and hydroxyl radical was calculated from competitive reaction theory. As the standard reaction rate constant, a reported value of mannitol (1.7×10^9 M^−1 s^−1) was used.
The secondary reaction rate constants between the solutes and hydroxyl radical were roughly calculated.

The structures appear in SMILES notation. Read-outs that look alike come from different tables or passages of the source.

In the case of `[Cl-].[K+]` [potassium chloride, reference compound], the “MDH enzymatic activity, % of the control activity” value in experiment [1] (in the presence of 600 mM) was 21%. Further, the “LDH enzymatic activity, % of the control activity” value in experiment [2] (in the presence of 600 mM) is 64%.

As to `OC[C@@H](O)[C@@H](O)[C@H](O)[C@H](O)CO` [Mannitol, mannitol], the “Reaction rate constant (with hydroxyl radical), reported standard value” in experiment [3] and in experiment [3] (listed as mannitol) was 1.7e+09 M⁻¹ s⁻¹ throughout.

Regarding `NC(=O)NCCC[C@H](N)C(=O)O` [Citrulline, citrulline], in experiment [1] (high concentration of solute), the “inhibitory effect on malate dehydrogenase (MDH)” value is on record as “did not cause any inhibitory effect”. The “MDH activity, % of control” value in experiment [1] (in the presence of 200 mM) is “about 109%”. Also, the “inhibitory effect on lactate dehydrogenase (LDH) activity” value in experiment [2] (high concentration of solute) is given as “not significant”. In addition, in experiment [2] (in the presence of 600 mM), the “decrease of LDH enzymatic activity” value is “about 10%”. Further, the figures for the “residual activity of PK, % of the initial activity” value in the experiment on pyruvate kinase (PK) (200 mM citrulline) and in the experiment on pyruvate kinase (PK) (400 mM citrulline) were 61% and 74%, respectively. Further, the “abscission of DNA” value in the experiment on circular plasmid DNA (50 mM citrulline (Lane 5)), in the experiment on circular plasmid DNA (100 mM citrulline (Lane 6)) and in the experiment on circular plasmid DNA (200 mM citrulline (Lane 7)) was “markedly reduced” in each case. Besides, the “Reaction rate constant (with hydroxyl radical)” value in experiment [4] was 2.9e+09 M⁻¹ s⁻¹. Besides, in experiment [4] (compared with glycinebetaine, proline, mannitol), the “potency as a scavenger of hydroxyl radical (FIG. 4)” value is recorded as “most significant among the four compatible solutes”. In addition, the “calculated ID50 value (secondary reaction rate constant with hydroxyl radical)” value in experiment [4] (roughly calculated) is “about 3×10^9 M^−1 s^−1”.

Consider `O=C(O)c1ccccc1O` [Salicylic acid, salicylic acid, reference compound], for which the “Reaction rate constant (with hydroxyl radical)” value in experiment [4] is 6.3e+09 M⁻¹ s⁻¹.

`C[N+](C)(C)CC(=O)O` [Glycinebetain, glycinebetaine, reference compound]: the “Reaction rate constant (with hydroxyl radical)” value in experiment [4] was 2.1e+07 M⁻¹ s⁻¹.

Regarding `O=C(O)[C@@H]1CCCN1` [Proline, proline, reference compound], in experiment [4], the “Reaction rate constant (with hydroxyl radical)” value is 3e+08 M⁻¹ s⁻¹.
